In ChEMBL document CHEMBL1201862, “PubChem BioAssay data set” (2004):
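1) Cells in 96-well plates. 2) Compound, 48 h, 5 concentrations. 3) Linear interpolation between surrounding doses. 4) Unreached endpoint = highest concentration. At the GI50, growth is halved.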 The source made the active and inactive calls. Cut-off read from the data, not from the text of the source: active = GI50 up to about 1.1 µM and inactive = higher.

Columns and labels:
Experiment in all cases: NCI-60 cell line screen, 48 h
HCT-116 = test system: HCT-116
K562 = test system: K562
DMS-273 = test system: DMS-273
EKVX = test system: EKVX
SF-539 = test system: SF-539
HL-60 = test system: HL-60
NCI-H460 = test system: NCI-H460
SNB-75 = test system: SNB-75
DLD-1 = test system: DLD-1
HOP-18 = test system: HOP-18
SW-620 = test system: SW-620
MOLT-4 = test system: MOLT-4
SF-268 = test system: SF-268
OVCAR-8 = test system: OVCAR-8
HOP-62 = test system: HOP-62
IGROV-1 = test system: IGROV-1
SNB-19 = test system: SNB-19
RXF 393 = test system: RXF 393
SK-MEL-28 = test system: SK-MEL-28
KM12 = test system: KM12
M19-MEL = test system: M19-MEL
NCI-H522 = test system: NCI-H522
SK-MEL-5 = test system: SK-MEL-5
RPMI-8226 = test system: RPMI-8226
M14 = test system: M14
TK-10 = test system: TK-10
UACC-62 = test system: UACC-62
LOX IMVI = test system: LOX IMVI
DMS-114 = test system: DMS-114
LXFL 529 = test system: LXFL 529
HT-29 = test system: HT-29
SK-OV-3 = test system: SK-OV-3
XF498 = test system: XF498
U-251 = test system: U-251
COLO 205 = test system: COLO 205
A549 = test system: A549
SN12C = test system: SN12C
OVCAR-3 = test system: OVCAR-3
NCI-H226 = test system: NCI-H226
HCC 2998 = test system: HCC 2998
786-0 = test system: 786-0
OVCAR-4 = test system: OVCAR-4
NCI-H23 = test system: NCI-H23
CCRF-CEM = test system: CCRF-CEM
KM-20L2 = test system: KM-20L2
SNB-78 = test system: SNB-78
SF-295 = test system: SF-295
OVCAR-5 = test system: OVCAR-5
SR = test system: SR
CAKI-1 = test system: CAKI-1
RXF 631 = test system: RXF 631
UO-31 = test system: UO-31
Malme-3M = test system: Malme-3M
ACHN = test system: ACHN
SK-MEL-2 = test system: SK-MEL-2
HOP-92 = test system: HOP-92
HCT-15 = test system: HCT-15
A498 = test system: A498
UACC-257 = test system: UACC-257

Measured: GI50

COc1cc2c(cc1OC)-c1c3cc(O)ccc3nn[n+]1CC2
inactive: HCT-116 > 100 µM | K562 > 100 µM | DMS-273 > 100 µM | EKVX > 100 µM | SF-539 > 100 µM | HL-60 > 100 µM | NCI-H460 > 100 µM | SNB-75 > 100 µM | DLD-1 > 100 µM | HOP-18 > 100 µM | SW-620 > 100 µM | MOLT-4 > 100 µM | SF-268 > 100 µM | OVCAR-8 > 100 µM | HOP-62 > 100 µM | IGROV-1 > 100 µM | SNB-19 > 100 µM | RXF 393 > 100 µM | SK-MEL-28 > 100 µM | KM12 > 100 µM | M19-MEL > 100 µM | NCI-H522 > 100 µM | SK-MEL-5 > 100 µM | RPMI-8226 > 100 µM | M14 > 100 µM | TK-10 > 100 µM | UACC-62 > 100 µM | LOX IMVI > 100 µM | DMS-114 > 100 µM | LXFL 529 > 100 µM | HT-29 > 100 µM | SK-OV-3 > 100 µM | XF498 > 100 µM | U-251 > 100 µM | COLO 205 > 100 µM | A549 > 100 µM | SN12C > 100 µM | OVCAR-3 > 100 µM | NCI-H226 > 100 µM | HCC 2998 > 100 µM | 786-0 > 100 µM | OVCAR-4 > 100 µM | NCI-H23 > 100 µM | CCRF-CEM > 100 µM | KM-20L2 > 100 µM | SNB-78 > 100 µM | SF-295 > 100 µM

Cc1ccc(NC(=O)CC(=O)n2nc(-c3ccccc3)c(/N=N/c3ccccc3C(=O)O)c2-c2ccccc2)cc1
inactive: OVCAR-5 > 100 µM | HCT-116 > 100 µM | K562 > 100 µM | DMS-273 > 100 µM | EKVX 1.91 µM | SF-539 > 100 µM | SR > 100 µM | CAKI-1 > 100 µM | DLD-1 39.3 µM | RXF 631 > 100 µM | SW-620 > 100 µM | MOLT-4 4.4 µM | SF-268 > 100 µM | UO-31 28.8 µM | OVCAR-8 > 100 µM | HOP-62 > 100 µM | IGROV-1 > 100 µM | SNB-19 > 100 µM | Malme-3M > 100 µM | RXF 393 > 100 µM | SK-MEL-28 > 100 µM | ACHN 51.5 µM | KM12 > 100 µM | M19-MEL > 100 µM | NCI-H522 > 100 µM | SK-MEL-5 > 100 µM | RPMI-8226 > 100 µM | TK-10 38.6 µM | UACC-62 > 100 µM | LOX IMVI > 100 µM | SK-MEL-2 > 100 µM | LXFL 529 > 100 µM | HOP-92 > 100 µM | SK-OV-3 > 100 µM | COLO 205 > 100 µM | A549 > 100 µM | SN12C > 100 µM | OVCAR-3 > 100 µM | NCI-H226 > 100 µM | HCC 2998 66.2 µM | OVCAR-4 > 100 µM | KM-20L2 84.7 µM | SF-295 > 100 µM
> 100 µM: HCT-15

CC(=O)OC1(C#N)CC2OC1C1N=NN(C(=O)OC(C)(C)C)C21 (stereo not drawn)
13.8 µM: HCT-15
inactive: OVCAR-5 > 100 µM | HCT-116 10.9 µM | K562 29.9 µM | DMS-273 36.5 µM | EKVX 55.1 µM | SF-539 9.75 µM | SR 15 µM | CAKI-1 > 31.6 µM | HL-60 20.6 µM | NCI-H460 > 100 µM | SNB-75 70.1 µM | DLD-1 14.7 µM | HOP-18 > 100 µM | SW-620 14.6 µM | MOLT-4 34 µM | SF-268 61.1 µM | A498 > 100 µM | UO-31 > 100 µM | OVCAR-8 30.3 µM | HOP-62 > 100 µM | IGROV-1 > 31.6 µM | SNB-19 > 100 µM | Malme-3M 34.7 µM | RXF 393 > 31.6 µM | SK-MEL-28 16.9 µM | ACHN > 100 µM | M19-MEL > 100 µM | NCI-H522 > 100 µM | SK-MEL-5 > 31.6 µM | RPMI-8226 30.3 µM | M14 21.7 µM | TK-10 > 100 µM | UACC-62 18.8 µM | LOX IMVI 17.2 µM | SK-MEL-2 11.2 µM | DMS-114 13.2 µM | UACC-257 20.4 µM | LXFL 529 32.3 µM | HOP-92 20.7 µM | HT-29 > 100 µM | SK-OV-3 > 100 µM | XF498 89.7 µM | U-251 > 100 µM | COLO 205 > 100 µM | A549 > 10 µM | SN12C 39.7 µM | OVCAR-3 43.1 µM | NCI-H226 3.76 µM | HCC 2998 > 100 µM | 786-0 > 100 µM | OVCAR-4 28.4 µM | NCI-H23 > 10 µM | CCRF-CEM 15.1 µM | KM-20L2 > 100 µM | SNB-78 21.1 µM | SF-295 > 100 µM

N[C@H](C(=O)O)[C@H](Cl)CC(=O)O
> 100 µM: HCT-15
inactive: OVCAR-5 > 100 µM | HCT-116 > 100 µM | K562 > 100 µM | DMS-273 > 100 µM | EKVX > 100 µM | SF-539 > 100 µM | CAKI-1 > 100 µM | HL-60 > 100 µM | NCI-H460 > 100 µM | SNB-75 > 100 µM | DLD-1 > 100 µM | HOP-18 > 100 µM | SW-620 > 100 µM | MOLT-4 > 100 µM | SF-268 > 100 µM | A498 > 100 µM | UO-31 > 100 µM | OVCAR-8 > 100 µM | HOP-62 > 100 µM | IGROV-1 > 100 µM | SNB-19 > 100 µM | Malme-3M > 100 µM | RXF 393 > 100 µM | SK-MEL-28 > 100 µM | ACHN > 100 µM | KM12 > 100 µM | M19-MEL > 100 µM | NCI-H522 > 100 µM | SK-MEL-5 > 100 µM | M14 > 100 µM | TK-10 > 100 µM | UACC-62 > 100 µM | LOX IMVI > 100 µM | SK-MEL-2 > 100 µM | DMS-114 > 100 µM | UACC-257 > 100 µM | LXFL 529 > 100 µM | HOP-92 > 100 µM | HT-29 > 100 µM | SK-OV-3 > 100 µM | XF498 > 100 µM | U-251 > 100 µM | COLO 205 > 100 µM | A549 > 100 µM | SN12C > 100 µM | OVCAR-3 > 100 µM | NCI-H226 > 100 µM | HCC 2998 > 100 µM | 786-0 > 100 µM | OVCAR-4 > 100 µM | NCI-H23 > 100 µM | CCRF-CEM > 100 µM | KM-20L2 > 100 µM | SNB-78 > 100 µM | SF-295 > 100 µM

CN(C(=O)/C=C/c1ccccc1)C1C2CN3CCC(O2)C13 (stereo not drawn)
> 100 µM: HCT-15
inactive: OVCAR-5 > 100 µM | HCT-116 > 100 µM | K562 > 100 µM | DMS-273 > 100 µM | EKVX > 100 µM | SF-539 > 100 µM | CAKI-1 > 100 µM | HL-60 > 100 µM | NCI-H460 > 100 µM | SNB-75 > 100 µM | DLD-1 > 100 µM | HOP-18 > 100 µM | SW-620 > 100 µM | MOLT-4 > 100 µM | SF-268 > 100 µM | A498 > 100 µM | UO-31 > 100 µM | OVCAR-8 > 100 µM | HOP-62 > 100 µM | IGROV-1 > 100 µM | SNB-19 > 100 µM | Malme-3M > 100 µM | RXF 393 > 100 µM | SK-MEL-28 > 100 µM | ACHN > 100 µM | KM12 > 100 µM | NCI-H522 > 100 µM | SK-MEL-5 > 100 µM | M14 > 100 µM | TK-10 > 100 µM | UACC-62 > 100 µM | LOX IMVI > 100 µM | SK-MEL-2 > 100 µM | DMS-114 > 100 µM | UACC-257 > 100 µM | LXFL 529 > 100 µM | HT-29 > 100 µM | SK-OV-3 > 100 µM | XF498 > 100 µM | U-251 > 100 µM | COLO 205 > 100 µM | A549 > 100 µM | SN12C > 100 µM | OVCAR-3 > 100 µM | NCI-H226 > 100 µM | HCC 2998 > 100 µM | 786-0 > 100 µM | OVCAR-4 > 100 µM | NCI-H23 > 100 µM | CCRF-CEM > 100 µM | KM-20L2 > 100 µM | SNB-78 > 100 µM | SF-295 > 100 µM
